Data set [1] deals with bulrush. The data set can be described thus: Test Example 1: herbicidal efficacy on rice paddy weeds pre-emergence. Type of data set: in vivo, Scirpus juncoides. The note with it: 21 days.
Data set [2] relates to false pimpernel. The description is as above. Type of data set: in vivo, Lindernia pyxidaria. The following applies: 21 days.
The test system of a further data set is barnyard glass. The data set can be described thus: Test Example 2: herbicidal efficacy on rice paddy weeds post-emergence. Type of data set: in vivo, Echinochloa crus-galli. The following applies: 21 days after treatment. From the text: The standard of judgment for herbicidal efficacy (degree of growth inhibition) and phytotoxicity 4 . . . 90%-100% of herbicidal efficacy or phytotoxicity 3 . . . 70%-89% of herbicidal efficacy or phytotoxicity 2 . . . 40%-69% of herbicidal efficacy or phytotoxicity 1 . . . 1%-39% of herbicidal efficacy or phytotoxicity 0 . . . 0% of herbicidal efficacy or phytotoxicity
A 75 cm^2 plastic pot was filled with soil (clay loam) and planted seeds of barnyard glass and bulrush which is a rice paddy weed. After covering the top with 75 cm^3 soil mixed with seeds of false pimpernel, the pot was filled with water so that the soil submerged under 5 cm depth of water and kept in a hot house. […] The pot was kept in a hot house for 21 days after the treatment and the herbicidal efficacy was investigated and evaluated according to the standard in Test Example 1 by comparing with the untreated control. “-” in the table represents test not done.

For data set [3], the system named is bulrush. The data set is described as above. The note with it: 21 days after treatment. Format: in vivo, Scirpus juncoides.
Data set [4] concerns false pimpernel. The data set is described as above. Format: in vivo, Lindernia pyxidaria. The following applies: 21 days after treatment.
The subject of data set [5] is paddy rice plant (cultivar: Nihonbare). As to the kind of experiment: Test Example 3: phytotoxicity test for transplanted paddy rice plant. Format: in vivo. The following applies: 21 days after treatment; for Phytotoxicity to paddy rice: transplanted rice. Put shortly: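 Clay loam soil was placed in a 75 cm^2 plastic pot and flooded to a water depth of 5 cm. Two Nihonbare paddy rice plants at the two-leaf stage were transplanted 1 cm deep and grown in a hot house. After treatment, pots stayed in the hot house for 21 days, and phytotoxicity was then graded against an untreated control.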

Setting [6] is: dosage 1000 g/ha, post-emergence, one leaf stage.
[7] abbreviates: dosage 1000 g/ha, treated 5 days after transplantation.
Where [8] appears, read: dosage 1000 g/ha active ingredient, vs untreated control.
[9] abbreviates: dosage 1000 g/ha active ingredient, post-emergence treatment at one leaf stage, vs untreated control.
[10] abbreviates: dosage 100 g/ha, post-emergence, one leaf stage.

Molecules are shown by their SMILES.

Regarding `COC(=O)N(c1ccccc1CN1CC2(CCCC2C)OC1=O)S(=O)(=O)C(F)(F)F` (stereo not drawn) [Compound 1-162], the “Bulrush pre (herbicidal efficacy grade)” value in the data set on bulrush [1] (dosage 1000 g/ha) was 4 (90%-100% of herbicidal efficacy or phytotoxicity). In addition, the “False pimpernel pre (herbicidal efficacy grade)” value (“False pimpernel pre” below) in the data set with false pimpernel [2] (dosage 1000 g/ha) was 4 (90%-100% of herbicidal efficacy or phytotoxicity). For the same compound, in the data set with barnyard glass (setting [6]), the “Burnyard grass post (herbicidal efficacy grade)” value (“Burnyard grass post” for short) is recorded as 4 (90%-100% of herbicidal efficacy or phytotoxicity). In addition, the “Bulrush post (herbicidal efficacy grade)” value with bulrush [3] (setting [6]) was 4 (90%-100% of herbicidal efficacy or phytotoxicity). Also, the “False pimpernel post (herbicidal efficacy grade)” value (from here on “False pimpernel post”) with false pimpernel [4] (setting [6]) is given as 4 (90%-100% of herbicidal efficacy or phytotoxicity). Besides, the “Phytotoxicity to paddy rice” value in data set [5] (setting [7]) is 1 (1%-39% of herbicidal efficacy or phytotoxicity).

Take `COCOc1cccc(CN2CC(C)(C)OC2=O)c1NS(=O)(=O)C(F)(F)F` [1-212]: the “Bulrush pre (herbicidal efficacy grade)” value in the data set on bulrush [1] (setting [8]) was 4 (90%-100% of herbicidal efficacy or phytotoxicity). In the data set on false pimpernel [2] (setting [8]), the “False pimpernel pre” value is recorded as 1 (1%-39% of herbicidal efficacy or phytotoxicity). Also, in the data set with barnyard glass (setting [9]), the “Burnyard grass post” value is reported as 3 (70%-89% of herbicidal efficacy or phytotoxicity). In addition, in the data set on bulrush [3] (setting [9]), the “Bulrush post (herbicidal efficacy grade)” value is 2 (40%-69% of herbicidal efficacy or phytotoxicity). For the same compound, the “False pimpernel post” value in the data set on false pimpernel [4] (setting [9]) is 2 (40%-69% of herbicidal efficacy or phytotoxicity). The “Phytotoxicity to paddy rice (grade)” value in data set [5] (dosage 1000 g/ha active ingredient, treated 5 days after transplantation, vs untreated control) was 3 (70%-89% of herbicidal efficacy or phytotoxicity).

For `CC(C)COC(=O)N(c1ccccc1CN1C(=O)OCC1C(C)C)S(=O)(=O)C(F)(F)F` (stereo not drawn) [Compound 1-10], in the data set on bulrush [1] (dosage 1000 g/ha), the “Bulrush pre (herbicidal efficacy grade)” value was 4 (90%-100% of herbicidal efficacy or phytotoxicity). In the data set on false pimpernel [2] (dosage 1000 g/ha), the “False pimpernel pre” value was 4 (90%-100% of herbicidal efficacy or phytotoxicity). For the same compound, the “Burnyard grass post” value in the data set with barnyard glass (setting [6]) is reported as 4 (90%-100% of herbicidal efficacy or phytotoxicity). The “Bulrush post (herbicidal efficacy grade)” value with bulrush [3] (setting [6]) is on record as 4 (90%-100% of herbicidal efficacy or phytotoxicity). For the same compound, the “False pimpernel post” value with false pimpernel [4] (setting [6]) was 4 (90%-100% of herbicidal efficacy or phytotoxicity). The “Phytotoxicity to paddy rice” value in data set [5] (setting [7]) is on record as 1 (1%-39% of herbicidal efficacy or phytotoxicity).

With `CCCCC1(C)CN(Cc2ccccc2N(C(=O)OC)S(=O)(=O)C(F)(F)F)C(=O)O1` (stereo not drawn) [Compound 1-128], in the data set on bulrush [1] (dosage 100 g/ha), the “Bulrush pre (herbicidal efficacy grade)” value is reported as 2 (40%-69% of herbicidal efficacy or phytotoxicity). The “False pimpernel pre” value in the data set with false pimpernel [2] (dosage 100 g/ha) is recorded as 4 (90%-100% of herbicidal efficacy or phytotoxicity). Besides, in the data set on barnyard glass (setting [10]), the “Burnyard grass post” value is 3 (70%-89% of herbicidal efficacy or phytotoxicity). In the data set on bulrush [3] (setting [10]), the “Bulrush post (herbicidal efficacy grade)” value was 3 (70%-89% of herbicidal efficacy or phytotoxicity). Moreover, the “False pimpernel post” value in the data set on false pimpernel [4] (setting [10]) is 2 (40%-69% of herbicidal efficacy or phytotoxicity). Also, the “Phytotoxicity to paddy rice” value in data set [5] (dosage 100 g/ha as printed in the table line) is reported as 1 (1%-39% of herbicidal efficacy or phytotoxicity).

`CC1N(Cc2ccccc2NS(=O)(=O)C(F)(F)F)C(=O)OC1(C)C` (stereo not drawn) [Compound 1-96]: the “Bulrush pre (herbicidal efficacy grade)” value with bulrush [1] (dosage 1000 g/ha) was 4 (90%-100% of herbicidal efficacy or phytotoxicity). Further, the “False pimpernel pre” value in the data set on false pimpernel [2] (dosage 1000 g/ha) is reported as 4 (90%-100% of herbicidal efficacy or phytotoxicity). Besides, the “Burnyard grass post” value in the data set with barnyard glass (setting [6]) is given as 4 (90%-100% of herbicidal efficacy or phytotoxicity). Besides, in the data set on bulrush [3] (setting [6]), the “Bulrush post (herbicidal efficacy grade)” value is on record as 4 (90%-100% of herbicidal efficacy or phytotoxicity). The “False pimpernel post” value in the data set on false pimpernel [4] (setting [6]) is on record as 4 (90%-100% of herbicidal efficacy or phytotoxicity). The “Phytotoxicity to paddy rice” value in data set [5] (setting [7]) was 3 (70%-89% of herbicidal efficacy or phytotoxicity).
